The source made the active and inactive calls. No cut-off for these calls is given here.
Tests used:
[1] = target: T1, Ubiquitin carboxyl-terminal hydrolase 7 (Homo sapiens, UniProt Q93009); experiment: Inhibition of recombinant His6-tagged human USP7 expressed in insect expression system […] using ubiquitin-Rh110 as substrate preincubated for 30 mins followed by substrate addition measured after 180 mins by fluorescence assay
Target sequence in this assay (Q93009 whole entry, looked up): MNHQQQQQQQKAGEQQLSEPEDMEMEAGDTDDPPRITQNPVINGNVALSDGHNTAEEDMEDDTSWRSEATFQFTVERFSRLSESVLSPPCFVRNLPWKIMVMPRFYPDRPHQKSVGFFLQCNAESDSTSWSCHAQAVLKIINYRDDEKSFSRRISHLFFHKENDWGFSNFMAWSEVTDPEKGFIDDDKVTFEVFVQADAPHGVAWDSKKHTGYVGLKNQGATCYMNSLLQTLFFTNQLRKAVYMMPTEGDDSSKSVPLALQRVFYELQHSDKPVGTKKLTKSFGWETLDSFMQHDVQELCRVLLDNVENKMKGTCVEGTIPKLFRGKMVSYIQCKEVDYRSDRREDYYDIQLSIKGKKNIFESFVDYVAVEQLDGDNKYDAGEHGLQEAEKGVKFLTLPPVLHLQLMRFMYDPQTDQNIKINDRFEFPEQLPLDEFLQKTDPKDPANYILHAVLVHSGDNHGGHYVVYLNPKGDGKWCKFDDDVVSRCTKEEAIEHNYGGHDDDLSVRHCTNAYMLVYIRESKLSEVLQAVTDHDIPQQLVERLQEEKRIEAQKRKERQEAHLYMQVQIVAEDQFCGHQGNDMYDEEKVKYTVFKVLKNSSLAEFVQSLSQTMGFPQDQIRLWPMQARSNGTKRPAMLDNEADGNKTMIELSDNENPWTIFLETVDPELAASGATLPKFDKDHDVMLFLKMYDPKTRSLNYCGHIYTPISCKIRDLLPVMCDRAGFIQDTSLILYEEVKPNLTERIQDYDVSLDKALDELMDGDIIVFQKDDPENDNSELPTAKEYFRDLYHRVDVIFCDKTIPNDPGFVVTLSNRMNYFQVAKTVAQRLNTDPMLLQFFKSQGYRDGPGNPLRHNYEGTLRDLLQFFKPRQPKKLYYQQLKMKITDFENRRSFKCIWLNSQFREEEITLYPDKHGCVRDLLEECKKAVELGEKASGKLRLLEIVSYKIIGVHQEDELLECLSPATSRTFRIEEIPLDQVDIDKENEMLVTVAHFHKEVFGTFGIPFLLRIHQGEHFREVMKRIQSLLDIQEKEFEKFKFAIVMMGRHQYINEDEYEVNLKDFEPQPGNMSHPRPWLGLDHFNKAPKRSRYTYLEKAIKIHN

[2] = target: T1, Ubiquitin carboxyl-terminal hydrolase 7; experiment: Inhibition of recombinant His6-tagged human USP7 expressed in insect expression system using ubiquitin-Rh110 as substrate preincubated for 30 mins followed by substrate addition measured after 180 mins by fluorescence assay
Target sequence in this assay (Q93009 whole entry): as the sequence (Q93009 whole entry, looked up) above

Compound	inhibition [1]	IC50 [2] [µM]
CCN1C(=O)C=CC1=O	Active	
CC1=C(O)/C(=C/C(C)CC/C=C(/C)CCCC2=CC(=O)[C@@H](c3ccoc3)[C@@H]2O)OC1=O (mixture of isomers)		4.6
CC1=C(O)/C(=C/C(C)CCC/C(C)=C/CCC2=CC(=O)[C@@H](c3ccoc3)[C@@H]2O)OC1=O (mixture of isomers)		2.8
CC1=C(O)/C(=C/C(C)CC/C=C(/C)CCCc2coc(Cc3ccoc3)c2)OC1=O (mixture of isomers)		3.5
CC1=C(O)/C(=C/C(C)CCC/C(C)=C/CCc2coc(Cc3ccoc3)c2)OC1=O (racemic)		2.7

From ChEMBL document CHEMBL4190222, “Sulawesins A-C, Furanosesterterpene Tetronic Acids That Inhibit USP7, from a Psammocinia sp. Marine Sponge” (J Nat Prod, 2017)
